# pIC50: −log10 of the molar value.
# Tests used:
# Bacillus subtilis = assay: Antibacterial activity against Bacillus subtilis ATCC 6633 at 100 ug by disk inhibition zone method relative to gentamycin; format: functional; parameters: scale not given: the % may be the effect or the level left
# Micrococcus luteus = assay: Antibacterial activity against Micrococcus luteus ATCC 10240 at 100 ug by disk inhibition zone method relative to chloramphenicol; format: functional; parameters: scale not given: the % may be the effect or the level left
# MDA-MB-231 = assay: Cytotoxicity against human MDA-MB-231 cells assessed as inhibition of cell proliferation after 72 hrs by MTS assay; format: functional, cell-based; conditions: MDA-MB-231, 72 h
# K562 = assay: Cytotoxicity against human K562 cells assessed as inhibition of cell proliferation after 72 hrs by MTS assay; format: functional, cell-based; conditions: K562, 72 h
# Escherichia coli = assay: Antibacterial activity against Escherichia coli ATCC 25922 at 100 ug by disk inhibition zone method relative to chloramphenicol; format: functional; parameters: scale not given: the % may be the effect or the level left
SMILES,Activity (Bacillus subtilis) [%],Activity (Micrococcus luteus) [%],pIC50 (MDA-MB-231),pIC50 (K562),Activity (Escherichia coli) [%]
C[C@H]1CCCC[C@@H]2[C@@H](CC(=O)O1)[C@@H](O)CC[C@@H]2O,0,0,7.40,8.40,0
C[C@H]1CCCC[C@H]2C(=O)CC[C@H](O)[C@@H]2CC(=O)O1,0,0,6.40,6.70,50
C[C@H]1CCCC[C@H]2C(=O)C[C@H](O)[C@H](O)[C@@H]2CC(=O)O1,62.5,0,7.92,7.70,0
C[C@H]1CCCC[C@H]2C(=O)C=C[C@H](O)[C@@H]2CC(=O)O1,100,38,7.70,7.70,0

# Reference: ChEMBL document CHEMBL1759835, “Biotransformation of natural compounds. Oxido-reduction of Sch-642305 by Aspergillus ochraceus ATCC 1009” (Bioorg Med Chem Lett, 2011)
